From US5238921A, “Oligopeptide, angiotensin converting enzyme inhibitors, hypotensive agent, and method for treatment of hypertension” (Agency of Industrial Science and Technology, priority 1990, dated 1993) come the findings set out here.

Non-standard residues stand in square brackets, D forms with d. Residues, ends and D or L forms follow the SMILES beside them.

One test has as its target T1, angiotensin converting enzyme (Oryctolagus cuniculus, UniProt P12822).
T1 construct: the supernatant was further purified with hydroxyapatite to obtain an angiotensin converting enzyme solution; from tissue; host or cells: rabbit lung (acetone powder)
T1 sequence (P12822 34-1310): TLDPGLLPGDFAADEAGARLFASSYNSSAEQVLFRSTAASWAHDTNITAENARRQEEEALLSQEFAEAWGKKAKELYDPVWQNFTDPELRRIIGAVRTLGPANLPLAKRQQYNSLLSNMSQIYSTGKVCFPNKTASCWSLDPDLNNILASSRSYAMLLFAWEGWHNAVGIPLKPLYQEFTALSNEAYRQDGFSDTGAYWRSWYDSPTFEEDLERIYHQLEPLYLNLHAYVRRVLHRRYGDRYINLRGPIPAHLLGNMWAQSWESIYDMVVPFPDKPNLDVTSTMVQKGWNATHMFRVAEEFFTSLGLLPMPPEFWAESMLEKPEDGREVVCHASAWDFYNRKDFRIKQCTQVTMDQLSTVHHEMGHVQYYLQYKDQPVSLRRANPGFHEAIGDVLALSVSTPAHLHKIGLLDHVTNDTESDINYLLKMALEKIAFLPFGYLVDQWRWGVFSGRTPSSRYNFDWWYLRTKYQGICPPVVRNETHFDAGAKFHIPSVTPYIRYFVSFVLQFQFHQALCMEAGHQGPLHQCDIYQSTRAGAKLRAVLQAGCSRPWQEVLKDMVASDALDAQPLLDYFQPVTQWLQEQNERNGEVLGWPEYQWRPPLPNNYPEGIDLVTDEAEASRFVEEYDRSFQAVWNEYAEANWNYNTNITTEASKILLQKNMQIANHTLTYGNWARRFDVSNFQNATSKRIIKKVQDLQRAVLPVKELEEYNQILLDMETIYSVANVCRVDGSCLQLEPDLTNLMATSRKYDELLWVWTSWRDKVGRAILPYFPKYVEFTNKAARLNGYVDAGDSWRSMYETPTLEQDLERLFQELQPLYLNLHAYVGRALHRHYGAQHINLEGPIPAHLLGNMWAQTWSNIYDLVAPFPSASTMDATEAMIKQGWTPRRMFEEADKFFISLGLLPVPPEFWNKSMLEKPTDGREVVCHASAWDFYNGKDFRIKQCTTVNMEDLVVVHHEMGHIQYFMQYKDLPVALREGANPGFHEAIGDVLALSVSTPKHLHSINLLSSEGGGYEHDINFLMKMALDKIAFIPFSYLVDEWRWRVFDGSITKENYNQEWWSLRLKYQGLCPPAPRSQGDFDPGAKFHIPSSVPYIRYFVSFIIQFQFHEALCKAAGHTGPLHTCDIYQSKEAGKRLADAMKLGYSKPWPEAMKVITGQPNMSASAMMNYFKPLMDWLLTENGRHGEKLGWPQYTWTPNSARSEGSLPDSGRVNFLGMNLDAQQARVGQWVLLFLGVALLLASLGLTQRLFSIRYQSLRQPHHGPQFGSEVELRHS
The experiment in a line: ACE inhibition activity (hippuroylhistidylleucine substrate, hippuric acid absorbance at 228 nm). The settings on record: concentration at which the inhibition rate (E2) was found; not 50%. Format: biochemical, rabbit. The protocol: The ACE inhibition activity of the thus obtained present oligopeptides was measured as follows. Namely, first, 5 g of rabbit lung acetone powder was dissolved in 50 ml of 0.1M sodium borate buffer (pH 8.3), the solution was centrifuged under the conditions of 40,000 G for 40 minutes, and the supernatant was further purified with hydroxyapatite to obtain an angiotensin converting enzyme solution having an enzyme activity of 1 unit/mg protein.
0.03 ml portions of aqueous solutions containing in various concentrations any one of the present oligopeptides was placed in test tubes, 0.25 ml portions of hippuroylhistidylleucine (final concentration 5 mM; containing 300 mM NaCl) were added thereto, 0.1 ml portions of the above angiotensin converting enzyme solution were added, and reactions were carried out at 37° C. for 30 minutes.
Plural of such an experiment were conducted and the inhibition rate was calculated by the following equation: [formula]
Turning to `CC(C)C[C@@H](N)C(=O)N[C@@H](CCCNC(=N)N)C(=O)N1CCC[C@H]1C(=O)O` [D--Leu--L--Arg--L--Pro, D-Leu-L-Arg-L-Pro] (H-[dL]-Arg-Pro-OH), the “Concentration giving the inhibition rate” value was found to be 45 µM.
Still for that read-out and setting: next, `CC(C)C[C@H](N)C(=O)NCC(=O)N1CCC[C@H]1C(=O)O` [L--Leu--Gly--L--Pro, L-Leu-Gly-L-Pro] (H-Leu-Gly-Pro-OH): 60 µM; `CC(C)C[C@H](N)C(=O)N[C@@H](CC(=O)O)C(=O)N1CCC[C@H]1C(=O)O` [L--Leu--L--Asp--L--Pro, L-Leu-L-Asp-L-Pro] (H-Leu-Asp-Pro-OH): 182 µM.
On the same count and under the same terms, next, `CC(C)C[C@H](N)C(=O)N[C@@H](CCC(=O)O)C(=O)N1CCC[C@H]1C(=O)O` [L--Leu--L--Glu--L--Pro, L-Leu-L-Glu-L-Pro] (H-Leu-Glu-Pro-OH): 24 µM; `CC(C)C[C@H](N)C(=O)N[C@H](C(=O)N1CCC[C@H]1C(=O)O)[C@@H](C)O` [L--Leu--L--Thr--L--Pro, L-Leu-L-Thr-L-Pro] (H-Leu-Thr-Pro-OH): 3.4 µM; `CC(C)C[C@H](N)C(=O)N[C@@H](Cc1ccc(O)cc1)C(=O)N1CCC[C@H]1C(=O)O` [L--Leu--L--Tyr--L--Pro, L-Leu-L-Tyr-L-Pro] (H-Leu-Tyr-Pro-OH): 12 µM.

Still in this test, the particulars now being: line prints 50% inhibition rate instead of the word IC50; read-out: Concentration giving the inhibition rate (50%).
Regarding `CC(C)C[C@H](N)C(=O)N[C@@H](C)C(=O)N1CCC[C@H]1C(=O)O` [L--Leu--L--Ala--L--Pro, L-Leu-L-Ala-L-Pro] (H-Leu-Ala-Pro-OH), the IC50 is 1.4 µM.
The same measure, in the same setting: the value for `CC(C)C[C@H](N)C(=O)N[C@@H](Cc1c[nH]cn1)C(=O)N1CCC[C@H]1C(=O)O` [L--Leu--L--His--L--Pro, L-Leu-L-His-L-Pro] (H-Leu-His-Pro-OH) was 80 µM; that for `CC(C)C[C@H](N)C(=O)N[C@@H](CCCCN)C(=O)N1CCC[C@H]1C(=O)O` [L--Leu--L--Lys--L--Pro, L-Leu-L-Lys-L-Pro] (H-Leu-Lys-Pro-OH) was 0.6 µM.

Staying with this test, now noted: rabbit lung ACE, 5 mM hippuroylhistidylleucine, 37° C. 30 minutes; read-out: IC50.
Turning to `CC[C@H](C)[C@H](N)C(=O)N[C@@H](CCCNC(=N)N)C(=O)N[C@@H](C)C(=O)N[C@@H](CCC(N)=O)C(=O)N[C@@H](CCC(N)=O)C(=O)O` [L--Ile--Arg--L--Ala--L--Gln--L--Gln, L-Ile-L-Arg-L-Ala-L-Gln-L-Gln] (H-IRAQQ-OH), the IC50 stood at 160 µM.
With `CC[C@H](C)[C@H](N)C(=O)N[C@@H](CCCNC(=N)N)C(=O)N[C@@H](C)C(=O)O` [L--Ile--L--Arg--L--Ala, L-Ile-L-Arg-L-Ala] (H-Ile-Arg-Ala-OH), the IC50 came out at 6.4 µM.
In the case of `CC(C)C[C@H](N)C(=O)N[C@@H](C)C(=O)N[C@@H](C)C(=O)O` [L--Leu--L--Ala--L--Ala, L-Leu-L-Ala-L-Ala] (H-Leu-Ala-Ala-OH), the IC50 came to 13 µM.
The same measure, in the same setting: next, `CC(C)C[C@H](N)C(=O)N[C@@H](CCCN=C(N)N)C(=O)N1CCC[C@H]1C(=O)O` [L--Leu--L--Arg--L--Pro, L-Leu-L-Arg-L-Pro] (H-Leu-Arg-Pro-OH): 0.27 µM; `CC(C)C[C@H](N)C(=O)N[C@@H](CC(N)=O)C(=O)N1CCC[C@H]1C(=O)O` [L--Leu--L--Asn--L--Pro, L-Leu-L-Asn-L-Pro] (H-Leu-Asn-Pro-OH): 35 µM.
Same read-out and setting: the value for `CC(C)C[C@H](N)C(=O)N[C@@H](CCC(N)=O)C(=O)N1CCC[C@H]1C(=O)O` [L--Leu--L--Gln--L-- Pro, L-Leu-L-Gln-L-Pro] (H-Leu-Gln-Pro-OH) was 1.9 µM.
On to `CC(C)C[C@H](N)C(=O)N[C@@H](CCC(N)=O)C(=O)N[C@@H](CCC(N)=O)C(=O)O` [L--Leu--L--Gln--L--Gln, L-Leu-L-Gln-L-Gln] (H-Leu-Gln-Gln-OH), for which the IC50 was 100 µM.
On the same count and under the same terms, the value for `CC(C)C[C@H](NC(=O)[C@@H](N)CC(C)C)C(=O)N1CCC[C@H]1C(=O)O` [L--Leu--L--Leu--L--Pro, L-Leu-L-Leu-L-Pro] (H-Leu-Leu-Pro-OH) was 57 µM.
Regarding `CC(C)C[C@H](N)C(=O)N[C@@H](CO)C(=O)N1CCC[C@H]1C(=O)O` [L--Leu--L--Ser--L--Pro, L-Leu-L-Ser-L-Pro] (H-Leu-Ser-Pro-OH), the IC50 is 1.7 µM.
The same measure, in the same setting: the value for `CC(C)C[C@H](NC(=O)[C@@H](N)Cc1ccccc1)C(=O)N1CCC[C@H]1C(=O)O` [L--Phe--L--Leu--L--Pro, L-Phe-L-Leu-L-Pro] (H-Phe-Leu-Pro-OH) was 210 µM; that for `N[C@@H](Cc1ccccc1)C(=O)N[C@@H](Cc1ccc(O)cc1)C(=O)O` [L--Phe--L--Tyr, L-Phe-L-Tyr] (H-Phe-Tyr-OH) was 25 µM; that for `CC(C)[C@H](N)C(=O)N[C@@H](C)C(=O)N[C@@H](C)C(=O)O` [L--Val--L--Ala--L--Ala, L-Val-L-Ala-L-Ala] (H-Val-Ala-Ala-OH) was 13 µM.
The same measure, in the same setting: the value for `CC(C)[C@H](N)C(=O)N[C@@H](C)C(=O)N[C@@H](Cc1ccc(O)cc1)C(=O)O` [L--Val--L--Ala--L--Tyr, L-Val-L-Ala-L-Tyr] (H-Val-Ala-Tyr-OH) was 16 µM; that for `CC(C)[C@H](N)C(=O)N[C@@H](CO)C(=O)N1CCC[C@H]1C(=O)O` [L--Val--L--Ser--Ser--L--Pro, L-Val-L-Ser-L-Pro] (H-Val-Ser-Pro-OH; N-terminus and C-terminus assumed) was 10 µM.

For the next test, the system named is spontaneous hypertensive rats (SHR). The experiment in a line: Hypotensive activity in spontaneous hypertensive rats (Tail-Cuff method). Format: in vivo, rat. The settings on record: 120 mg/kg intraperitoneally, maximum blood pressure before minus after administration ± S.E., p < 0.01 against saline control. The protocol: 10-week old spontaneous hypertensive rats (SHR) (produced BY Nihon Rat Co., Ltd.,.male., weight 240 to 280 g, 4 to 6 animals per 1 group) were used as test animals. L-Leu-L-Arg-L-Pro obtained as in Example 12 was dissolved in physiological saline and 120 mg in terms of the effective ingredient of the solution was intraperitoneally administered per kg of animal. As control physiological saline was intraperitoneally administered. Blood pressure was measured before the administration and at regular intervals of time after the administration by the Tail-Cuff method using a bloodless sphygmomanometer for rats and mice TK-350 (produced by Unicom Co., Ltd.)
The results were shown in Table 2 by (Maximum blood pressure value before the administration-Maximum blood pressure value after the administration) ± S.E.
On to `CC(C)C[C@H](N)C(=O)N[C@@H](CCCNC(=N)N)C(=O)N1CCC[C@H]1C(=O)O` [L--Leu--L--Arg--L--Pro, L-Leu-L-Arg-L-Pro] (H-Leu-Arg-Pro-OH), for which the “Lowering of blood pressure (mm Hg) 5 hours later” value is 14 ± 5 mm Hg.
